Tests used:
horny layer = experiment: Skin conductance (water content of horny layer) after two-week coating on cheeks; format: in vivo, women; parameters: key: conductance meter reading; ≤5 = severe roughness, ≥20 = no roughness; details: Invention Product 1: vaseline and compound 3:1 by weight; two weeks; 20° C., 40% humidity; 5 and smaller = severe roughness, 20 or greater = no substantial roughness
Source text: (§1) Compounds Ia1 -Ia18 prepared respectively in Referential Examples 1, 2 and 3 and following the procedures of these referential examples, compounds Ib1 -Ib5 prepared respectively in Referential Example 4 and following the procedure of the referential example, compounds Id1 -Id5 prepared respectively in Referential Example 5 and following the procedure of the referential example, compounds Ie1 -Ie4 prepared respectively in Referential Examples 6-9, and conventional compounds Ic1 -Ic13, Ie5 -Ie14 and II1 -II12 were used separately. Mixtures (Invention Products 1), each of which had been formulated by mixing vaseline and the compound (I or II) at a weight ratio of 3:1, and vaseline (Comparative Product 1) were evaluated in skin conductance and skin roughness by the following methods.
(§2) Chosen as volunteers in winter were 10 women of 20-50 years of old who had skin roughness on their both cheeks. Different external skin care preparations were coated separately on the left and right cheeks of each volunteer for two weeks. On the following day of the completion of the two-week coating test, tests were conducted with respect to the following properties.
After washing the face with warm water of 37° C., each volunteer was allowed to rest for 20 minutes in a room which was air-conditioned at 20° C. and 40% humidity. The water content of their horny layer was measured by a skin conductance meter (manufactured by IBS Company). A smaller conductance value indicates greater skin roughness. Conductance values of 5 and smaller indicate severe skin roughness. On the contrary, no substantial skin roughness is observed where this value is 20 or greater.

skin roughness = experiment: Score of skin roughness, visual ranking after two-week coating on cheeks; format: in vivo, women; details: average, 4 = severe
Source text: as §1, §2
Skin roughness was observed visually and ranked in accordance with the following standard. Each score was indicated by an average value.
Score Ranking of skin roughness
0 No skin roughness was observed.
1 Slight skin roughness was observed.
2 Skin roughness was observed.
3 Rather severe skin roughness was observed.
4 Severe skin roughness was observed.
Using separately the compounds used in Example 1, external skin care preparations (emulsified cosmetic preparations) of their corresponding compositions shown below in Table 2 were formulated. Their effects for the improvement of skin roughness were evaluated in the same manner as in Example 1.

[1] = Invention product 2: emulsified cosmetic, compound 1.0 wt. %, glyceryl ether 2.0 wt. %, 0 = none
[2] = Invention product 3: emulsified cosmetic, compound 1.0 wt. %, arginine monocetylphosphate 2.0 wt. %, 0 = none
[3] = Invention product 4: emulsified cosmetic, compound 1.0 wt. %, polyoxyethylene (20) sorbitan stearate 1.0 and sorbitan monostearate 1.0 wt. %, 0 = none
[4] = Invention Product 1: vaseline and compound 3:1 by weight, two weeks, 0 = no roughness

Structure (SMILES)	Skin conductance (horny layer)	Score of skin roughness (skin roughness; [1])	Score of skin roughness (skin roughness; [2])	Score of skin roughness (skin roughness; [3])	Score of skin roughness (skin roughness; [4])
CCCCCCCCCCCCCCCCCCOCC(O)CN(CC(O)COCCCCCCCCCCCCCCCCCC)C(C)=O (stereo not shown) [Compound II12]	20	0.2	0.4	0.8	
CCCCCCCCCCCCCCCCCCOCC(O)CN(C(=O)CCCCCCCCCCCCCCCCC)C(C)(C)CO (stereo not shown) [Compound Ia15]	13	0.5	0.7	1.0	
CCCCCCCCCCCCCCCCOCC(O)CN(C(=O)CCCCCCCCCCCCCCC)C(CCC(=O)O)C(=O)O (stereo not shown) [Compound Ic11]	13	0.8	1.0	1.3	
CCCCCCCCCCCCCCCCC(O)CN(CCO)C(=O)CCCCCCCCC (stereo not shown) [Compound Id2]	18	0.3	0.5	0.8	
CCCCCCCCCCCCCCCCCCOCC(O)CN(CCCCCCO)C(=O)CCCCCCCCCC (stereo not shown) [Compound Ia8]	13	0.5	0.7	1.1	
CCCCCCCCCCCCCCCCOCC(CN(CCO)C(=O)CCCCCCCCCCCCCCC)OP(=O)([O-])OCC[N+](C)(C)C (stereo not shown) [Compound Ie13]	11	0.9	1.1	1.5	
CCCCCCCCCCCCCCCCCCOCC(O)CN(C(=O)CCCCCCCCCCCCCCCCC)C(C)CO (stereo not shown) [Compound Ia16]	15	0.4	0.6	0.9	
CCCCCCCCCCCCCCCCCC(=O)N(CCCO)CC(O)COCCCCCCCCCC (stereo not shown) [Compound Ia4]	13	0.5	0.7	1.1	
CCCCCCCCCCCCCCCCCCOCC(O)CN(CCCCCCO)C(=O)CCCCCCCCCCCCCCCCC (stereo not shown) [Compound Ia9]	20	0.2	0.4	0.9	
CCCCCCCCCCCCCCCCCC(=O)N(CC(O)CO)CC(O)COCCCCCCCCCC (stereo not shown) [Compound Ia11]	19	0.3	0.5	0.8	
CCCCCCCCCCCCCCCCOCC(O)CN(C(=O)CCCCCCCCCCCCCCC)C(C)C(=O)O (stereo not shown) [Compound Ic5]	13	0.8	1.0	1.3	
CCCCCCCCCCCCCCCCCCOCC(O)CN(CCO)CC(O)COCCCCCCCCCC (stereo not shown) [Compound II3]	11	0.5	0.8	1.1	
CCCCCCCCCCCCCCCCOCC(O)CN(C(=O)CCCCCCCCCCCCCCC)C(Cc1c[nH]cn1)C(=O)O (stereo not shown) [Compound Ic12]	11	1.0	1.3	1.6	
CCCCCCCCCCCCCCCCCCOCC(O)CN(CC(=O)O)CC(O)COCCCCCCCCCCCCCCCCCC (stereo not shown) [Compound II8]	20	0.2	0.4	0.8	
CCCCCCCCCCCCCCCCCCOCC(O)CN(CCOCCO)C(=O)CCCCCCCCC (stereo not shown) [Compound Ib3]	14	0.6	0.9	1.1	
CCCCCCCCCCCCCCCCOCC(O)CN(C(=O)CCCCCCCCCCCCCCC)C(CO)C(=O)O (stereo not shown) [Compound Ic8]	18	0.4	0.6	0.9	

Structure (SMILES)	Skin conductance (horny layer)	Score of skin roughness (skin roughness; [1])	Score of skin roughness (skin roughness; [2])	Score of skin roughness (skin roughness; [3])	Score of skin roughness (skin roughness; [4])
CCCCCCCCCCC(O)CN(CCO)C(=O)CCCCCCCCC (stereo not shown) [Compound Id3]	13	0.5	0.8	1.1	
CCCCCCCCCCCCCCCCOCC(O)CN(C(=O)CCCCCCCCCCCCCCC)C(CC(=O)O)C(=O)O (stereo not shown) [Compound Ic10]	15	0.6	0.8	1.1	
CCCCCCCCCCOCC(O)CN(CCOP(=O)(O)OCCNCCc1ccccc1)C(=O)CCCCCCCCC (stereo not shown) [Compound Ie10]	11	1.0	1.2	1.8	
CCCCCCCC/C=C\CCCCCCCC(=O)N(CCO)CC(O)CCCCCCCCCCCCCCCC (stereo not shown) [Compound Id5]	25	0.1	0.3	0.6	
CCCCCCCCCCCCCCCCCC(=O)N(CCO)CC(O)CCCCCCCCCCCCCC (stereo not shown) [Compound Id1, N-(2-hydroxyethyl)-N-2-hydroxyhexa-decyloctadecanamide]	21	0.2	0.4	0.7	1.0
CCCCCCCCCCCCCCCCOCC(O)CN(C(=O)CCCCCCCCCCCCCCC)C(CCSC)C(=O)O (stereo not shown) [Compound Ic9]	16	0.5	0.7	1.0	
CCCCCCCC/C=C\CCCCCCCCOCC(O)CN(CCOP(=O)([O-])OCC[N+](C)(C)C)C(=O)CCCCCCCCCCCCCCCCC (stereo not shown) [Compound Ie12]	13	0.9	0.9	1.5	
CCCCCCCCCCCCCCCCCC(=O)N(CC(=O)O)CC(O)COCCCCCCCCCCCCCC (stereo not shown) [Compound Ic1]	14	0.7	0.9	1.2	
CCCCCCCCCCCCCCCCOCC(O)CN(CCO[C@]1(C(=O)O)C[C@H](O)[C@@H](NC(C)=O)[C@H]([C@H](O)[C@H](O)CO)O1)C(=O)CCCCCCCCCCCCCCC (stereo partly drawn) [Compound Ie4, N-(3-hexadecyloxy-2-hydroxypropyl)-N-[2-O-(5-acetamido-3,5-dideoxy-α-D-glycero-β-D-galacto-2-nonuropyranosyl)ethyl]hexadecanamide]	33	0.2	0.2	0.4	0.5
CCCCCCCCCCCCCCCCOCC(O)CN(C(=O)CCCCCCCCCCCCCCC)C(C(=O)O)C(C)C (stereo not shown) [Compound Ic7]	15	0.6	0.8	1.1	
CCCCCCCCCCCCCCCCOCC(O)CN(CC(=O)O)CC(O)COCCCCCCCCCCCCCCCC (stereo not shown) [Compound II9]	17	0.1	0.3	0.9	
CCCCCCCCCCCCCCCCCC(=O)N(CCOP(=O)([O-])OCC[N+](CC)(CC)CC)CC(O)COCCCCCCCCCCCCCC (stereo not shown) [Compound Ie9]	18	0.6	0.6	1.0	
CCCCCCCCCCCCCCCCCCOCC(O)CN(CC(=O)O)CC(O)COCCCCCCCCCC (stereo not shown) [Compound II7]	10	0.5	0.8	1.1	
CCCCCCCCCCCCCCCCCC(=O)N(CCCCCCO)CC(O)COCCCCCCCCCC (stereo not shown) [Compound Ia7]	11	0.6	0.9	1.2	
CCCCCCCCCCCCCCCCOCC(O)CN(CCOP(=O)(O)OCCNC)C(=O)CCCCCCCCCCCCCCC (stereo not shown) [Compound Ie6]	16	0.8	0.9	1.4	
CCCCCCCCCCOCC(O)CN(CC(=O)O)CC(O)COCCCCCCCCCC (stereo not shown) [Compound II6]	7	0.8	1.0	1.2	
